What was measured:
Assay type in all cases: in vivo
Solanum nigrum (SOLNI) [1] = experiment: Post-emergence biological efficacy, glasshouse pot test; settings: 312 h
Method in brief: (§1)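 Plants were sown in standard soil and grown 8 days in a glasshouse (24/16° C. day/night, 14 hours light, 65% humidity), then sprayed post-emergence at 1000 or 250 g/ha from acetone/water (50:50) with 0.5% Tween 20. Damage was scored visually after 13 days (0 = none, 100 = total).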

[2] = test system: Amaranthus retoflexus (AMARE); experiment: as above; settings: Amaranthus retroflexus, 312 h
Method in brief: as §1

[3] = test system: Ipomea hederaceae (IPOHE); experiment: as above; settings: Ipomoea hederacea, 312 h
Method in brief: as §1

[4] = test system: Echinochloa crus-galli (ECHCG); experiment: as above; settings: 312 h
Method in brief: as §1

Setaria faberi (SETFA) [5] = experiment: as above; settings: 312 h
Method in brief: as §1

[6] = test system: Alopecurus myosuroides (ALOMY); experiment: as above; settings: 312 h
Method in brief: as §1

Solanum nigrum (SOLNI) [7] = experiment: Pre-emergence biological efficacy, glasshouse pot test; settings: 312 h
Method in brief: (§2)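 One day after seeds were sown in pots, compound was sprayed at 1000 or 250 g/ha. Plants were kept at 24/16 °C with 14 h light and 65% humidity and watered twice daily; damage was graded at day 13 (0 none, 100 total).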

[8] = test system: Amaranthus retoflexus (AMARE); experiment: as above; settings: Amaranthus retroflexus, 312 h
Method in brief: as §2

[9] = test system: Ipomea hederaceae (IPOHE); experiment: as above; settings: Ipomoea hederacea, 312 h
Method in brief: as §2

[10] = test system: Echinochloa crus-galli (ECHCG); experiment: as above; settings: 312 h
Method in brief: as §2

Setaria faberi (SETFA) [11] = experiment: as above; settings: 312 h
Method in brief: as §2

[12] = test system: Alopecurus myosuroides (ALOMY); experiment: as above; settings: 312 h
Method in brief: as §2

[13] = post-emergence, 1,000 g/ha, evaluated after 13 days (100=total damage; 0=no damage), read-out: Percentage damage caused to weed species, SOLNI
[14] = post-emergence, 1,000 g/ha, evaluated after 13 days (100=total damage; 0=no damage), read-out: Percentage damage caused to weed species, AMARE
[15] = post-emergence, 1,000 g/ha, evaluated after 13 days (100=total damage; 0=no damage), read-out: Percentage damage caused to weed species, IPOHE
[16] = post-emergence, 1,000 g/ha, evaluated after 13 days (100=total damage; 0=no damage), read-out: Percentage damage caused to weed species, ECHCG
[17] = post-emergence, 1,000 g/ha, evaluated after 13 days (100=total damage; 0=no damage), read-out: Percentage damage caused to weed species, SETFA
[18] = post-emergence, 1,000 g/ha, evaluated after 13 days (100=total damage; 0=no damage), read-out: Percentage damage caused to weed species, ALOMY
[19] = pre-emergence, 1,000 g/ha, evaluated after 13 days (100=total damage; 0=no damage), read-out: Percentage damage SOLNI
[20] = pre-emergence, 1,000 g/ha, evaluated after 13 days (100=total damage; 0=no damage), read-out: Percentage damage AMARE
[21] = pre-emergence, 1,000 g/ha, evaluated after 13 days (100=total damage; 0=no damage), read-out: Percentage damage IPOHE
[22] = pre-emergence, 1,000 g/ha, evaluated after 13 days (100=total damage; 0=no damage), read-out: Percentage damage ECHCG
[23] = pre-emergence, 1,000 g/ha, evaluated after 13 days (100=total damage; 0=no damage), read-out: Percentage damage SETFA
[24] = pre-emergence, 1,000 g/ha, evaluated after 13 days (100=total damage; 0=no damage), read-out: Percentage damage ALOMY
[25] = Rate 1,000 g/ha, post-emergence spray, evaluated after 13 days (100=total damage to plant; 0=no damage to plant), read-out: Percentage damage caused to weed species, post-emergence, SOLNI
[26] = Rate 1,000 g/ha, post-emergence spray, evaluated after 13 days (100=total damage to plant; 0=no damage to plant), read-out: Percentage damage caused to weed species, post-emergence, AMARE
[27] = Rate 1,000 g/ha, post-emergence spray, evaluated after 13 days (100=total damage to plant; 0=no damage to plant), read-out: Percentage damage caused to weed species, post-emergence, IPOHE
[28] = Rate 1,000 g/ha, post-emergence spray, evaluated after 13 days (100=total damage to plant; 0=no damage to plant), read-out: Percentage damage caused to weed species, post-emergence, ECHCG
[29] = Rate 1,000 g/ha, post-emergence spray, evaluated after 13 days (100=total damage to plant; 0=no damage to plant), read-out: Percentage damage caused to weed species, post-emergence, SETFA
[30] = Rate 1,000 g/ha, post-emergence spray, evaluated after 13 days (100=total damage to plant; 0=no damage to plant), read-out: Percentage damage caused to weed species, post-emergence, ALOMY
[31] = pre-emergence, rate 1,000 g/ha, evaluated after 13 days (100=total damage to plant; 0=no damage), read-out: Percentage damage caused to weed species, SOLNI
[32] = pre-emergence, rate 1,000 g/ha, evaluated after 13 days (100=total damage to plant; 0=no damage), read-out: Percentage damage caused to weed species, AMARE
[33] = pre-emergence, rate 1,000 g/ha, evaluated after 13 days (100=total damage to plant; 0=no damage), read-out: Percentage damage caused to weed species, IPOHE
[34] = pre-emergence, rate 1,000 g/ha, evaluated after 13 days (100=total damage to plant; 0=no damage), read-out: Percentage damage caused to weed species, ECHCG
[35] = pre-emergence, rate 1,000 g/ha, evaluated after 13 days (100=total damage to plant; 0=no damage), read-out: Percentage damage caused to weed species, SETFA
[36] = pre-emergence, rate 1,000 g/ha, evaluated after 13 days (100=total damage to plant; 0=no damage), read-out: Percentage damage caused to weed species, ALOMY

Row | SMILES | pest or weed control at 1000 g/ha (Solanum nigrum (SOLNI) [1]; [13]) [%] | pest or weed control at 1000 g/ha [2, 14] [%] | pest or weed control at 1000 g/ha [3, 15] [%] | pest or weed control at 1000 g/ha [4, 16] [%] | pest or weed control at 1000 g/ha (Setaria faberi (SETFA) [5]; [17]) [%] | pest or weed control at 1000 g/ha [6, 18] [%] | pest or weed control at 1000 g/ha (Solanum nigrum (SOLNI) [7]; [19]) [%] | pest or weed control at 1000 g/ha [8, 20] [%] | pest or weed control at 1000 g/ha [9, 21] [%] | pest or weed control at 1000 g/ha [10, 22] [%] | pest or weed control at 1000 g/ha (Setaria faberi (SETFA) [11]; [23]) [%] | pest or weed control at 1000 g/ha [12, 24] [%] | pest or weed control at 1000 g/ha (Solanum nigrum (SOLNI) [1]; [25]) [%] | pest or weed control at 1000 g/ha [2, 26] [%] | pest or weed control at 1000 g/ha [3, 27] [%] | pest or weed control at 1000 g/ha [4, 28] [%] | pest or weed control at 1000 g/ha (Setaria faberi (SETFA) [5]; [29]) [%] | pest or weed control at 1000 g/ha [6, 30] [%] | pest or weed control at 1000 g/ha (Solanum nigrum (SOLNI) [7]; [31]) [%] | pest or weed control at 1000 g/ha [8, 32] [%] | further results
1 | COC(=O)c1nc(C2CC2)nc(NC(C)c2ccc(Cl)cc2)c1Cl (stereo not drawn) [Compound 4-176, 5-Chloro-4-[1-(4-chlorophenyl)ethyl-amino]-2-cyclo-propyl-6-methoxy-carbonylpyrimidine] | 100 | 100 | 100 | 50 | 70 | 20 | 0 | 50 | 60 | 20 | 0 | 0 | – | – | – | – | – | – | – | – | –
2 | COC(=O)c1nc(C2CC2)nc(N(C)Cc2ccco2)c1Cl [Compound 5-125, 5-Chloro-2-cyclopropyl-4-(N-furan-2-ylmethyl-N-methyl-amino)-6-methoxycarbonyl-pyrimidine] | – | – | – | – | – | – | – | – | – | – | – | – | 90 | 100 | 100 | 60 | 80 | 50 | 90 | 100 | pest or weed control at 1000 g/ha [9, 33]: 100%; pest or weed control at 1000 g/ha [10, 34]: 70%; pest or weed control at 1000 g/ha (Setaria faberi (SETFA) [11]; [35]): 80%; pest or weed control at 1000 g/ha [12, 36]: 40%
3 | COC(=O)c1nc(-c2ccc(Cl)cc2OC)nc(NCc2ccco2)c1Cl [Compound 214-48, 5-Chloro-2-(4-chloro-2-methoxyphenyl)-4-(furan-2-yl-methyl-amino)-6-methoxy-carbonylpyrimidine] | – | – | – | – | – | – | – | – | – | – | – | – | 70 | 100 | 30 | 0 | 10 | 30 | 20 | 100 | pest or weed control at 1000 g/ha [9, 33]: 0%; pest or weed control at 1000 g/ha [10, 34]: 0%; pest or weed control at 1000 g/ha (Setaria faberi (SETFA) [11]; [35]): 10%; pest or weed control at 1000 g/ha [12, 36]: 20%
4 | COC(=O)c1nc(C2CC2)nc(NCC2CCCCCCC2)c1Cl [Compound 4-52, 5-Chloro-4-cyclooctylmethyl-amino-2-cyclo-propyl-6-methoxy-carbonylpyrimidine] | 60 | 30 | 50 | 20 | 20 | 0 | 30 | 40 | 0 | 0 | 0 | 0 | – | – | – | – | – | – | – | – | –
5 | COC(=O)c1nc(C2CC2)nc(N[C@H](CO)Cc2ccccc2)c1Cl [4-273 (S), 5-Chloro-2-cyclopropyl-4-[(1S)-1-hydroxymethyl-2-phenyl-ethylamino]-6-methoxy-carbonylpyrimidine] | 100 | 100 | 90 | 60 | 70 | 50 | 90 | 100 | 90 | 60 | 80 | 40 | – | – | – | – | – | – | – | – | –
6 | COC(=O)c1nc(C2CC2)nc(N(C)CC(O)c2ccccc2)c1Cl (stereo not drawn) [Compound 5-257, 5-Chloro-2-cyclopropyl-4-[N-(2-hydroxy-2-phenyl-ethyl)-N-methyl-amino]-6-methoxy-carbonylpyrimidine] | – | – | – | – | – | – | – | – | – | – | – | – | 80 | 100 | 80 | 30 | 50 | 20 | 100 | 100 | pest or weed control at 1000 g/ha [9, 33]: 50%; pest or weed control at 1000 g/ha [10, 34]: 30%; pest or weed control at 1000 g/ha (Setaria faberi (SETFA) [11]; [35]): 10%; pest or weed control at 1000 g/ha [12, 36]: 10%
7 | COC(=O)c1nc(C2CC2)nc(NC2CC2)c1Cl [Compound 4-1, 5-Chloro-2-cyclopropyl-4-cyclopropylamino-6-methoxycarbonyl-pyrimidine] | 100 | 100 | 90 | 60 | 80 | 60 | 100 | 100 | 90 | 50 | 60 | 40 | – | – | – | – | – | – | – | – | –
8 | COc1ccc(CNc2nc(C3CC3)nc(C(=O)O)c2Cl)c(OC)c1 [Compound 1-110, 5-Chloro-2-cyclopropyl-4-(2,4-dimethoxyphenyl-methylamino)-pyrimidine-6-carboxylic acid] | 80 | 100 | 80 | 50 | 80 | 30 | 60 | 100 | 90 | 20 | 30 | 40 | – | – | – | – | – | – | – | – | –
9 | C=CCN(Cc1cccc(OC)c1OC)c1nc(C2CC2)nc(C(=O)OC)c1Cl [Compound 151-109, 5-Chloro-2-cyclopropyl-4-[N-(2,3-dimethoxyphenyl-methyl)-N-prop-2-en-1-yl-amino]-6-methoxycarbonyl-pyrimidine] | – | – | – | – | – | – | – | – | – | – | – | – | 30 | 30 | 30 | 0 | 0 | 0 | 20 | 60 | pest or weed control at 1000 g/ha [9, 33]: 20%; pest or weed control at 1000 g/ha [10, 34]: 0%; pest or weed control at 1000 g/ha (Setaria faberi (SETFA) [11]; [35]): 10%; pest or weed control at 1000 g/ha [12, 36]: 0%
